Data on two compounds can be found in patent US11173144B2, “Adrenergic receptor modulating compounds and methods of using the same” (The Board of Trustees of the Leland Stanford Junior …, priority 2016, dated 2021).

Entries after “also recorded” stand apart in the source; their conditions may differ. Where two headings read alike, the source gives them in different places.

In one data set the target is 5-HT1A (Homo sapiens (Human), UniProt P08908). Description: CNS target panel screen: 5-HT1A. It is filed as binding. From the text:
(§1) From a drug development perspective, characterizing the off-target effects of lead compounds is an important issue, as interactions with off-target molecules may lead to undesirable side effects. Thus we screened xamoterol (S) and the key compound compound 43 against a panel of CNS relevant targets, including G-protein coupled receptor and transporters. […].

The next data set concerns the target 5-HT2B (Homo sapiens (Human), UniProt P41595). Description: CNS target panel screen: 5-HT2B. The class given is binding. From the text:
From a drug development perspective, characterizing the off-target effects of lead compounds is an important issue, as interactions with off-target molecules may lead to undesirable side effects. Thus we screened xamoterol (S) and the key compound compound 43 against a panel of CNS relevant targets, including G-protein coupled receptor and transporters.

The target of another data set is α1D adrenergic receptor (Homo sapiens (Human), UniProt P25100). Kind of data set: CNS target panel screen: α1D adrenergic receptor. It is filed as binding.
α1D adrenergic receptor, sequence (P25100 whole entry): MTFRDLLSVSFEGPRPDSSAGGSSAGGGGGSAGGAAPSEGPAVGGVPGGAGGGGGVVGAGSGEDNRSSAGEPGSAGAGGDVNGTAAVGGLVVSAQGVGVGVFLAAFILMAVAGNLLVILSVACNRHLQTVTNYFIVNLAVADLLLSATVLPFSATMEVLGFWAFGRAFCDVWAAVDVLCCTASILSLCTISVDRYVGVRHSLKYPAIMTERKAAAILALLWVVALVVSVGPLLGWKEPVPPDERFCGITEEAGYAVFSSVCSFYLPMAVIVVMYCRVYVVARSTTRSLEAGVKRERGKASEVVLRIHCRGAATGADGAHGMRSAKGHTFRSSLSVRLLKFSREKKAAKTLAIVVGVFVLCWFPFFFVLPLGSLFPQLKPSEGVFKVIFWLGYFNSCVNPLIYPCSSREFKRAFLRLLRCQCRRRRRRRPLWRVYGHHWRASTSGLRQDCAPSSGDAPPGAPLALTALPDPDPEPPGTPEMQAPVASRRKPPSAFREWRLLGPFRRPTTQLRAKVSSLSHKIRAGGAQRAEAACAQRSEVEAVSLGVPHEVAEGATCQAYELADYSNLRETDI
From the text: as §1

For the next data set, the target named is D3 dopaminergic receptor (Homo sapiens (Human), UniProt P35462). Kind of data set: CNS target panel screen: D3 dopaminergic receptor. It is filed as binding.
D3 dopaminergic receptor, sequence (P35462 whole entry): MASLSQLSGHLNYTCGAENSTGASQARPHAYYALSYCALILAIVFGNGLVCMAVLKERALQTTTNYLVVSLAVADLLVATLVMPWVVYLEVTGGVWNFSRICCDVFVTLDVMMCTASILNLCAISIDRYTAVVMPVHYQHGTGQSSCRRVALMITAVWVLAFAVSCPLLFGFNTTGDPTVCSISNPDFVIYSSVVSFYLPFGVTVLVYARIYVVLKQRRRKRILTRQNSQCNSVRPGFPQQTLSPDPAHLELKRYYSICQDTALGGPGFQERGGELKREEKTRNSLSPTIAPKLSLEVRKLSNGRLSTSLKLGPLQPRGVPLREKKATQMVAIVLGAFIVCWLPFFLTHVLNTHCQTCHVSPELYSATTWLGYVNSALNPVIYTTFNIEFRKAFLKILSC
From the text: as §1

The nature of data set [1]: Pharmacokinetic study, 4 hour time course. The class given is in vivo, Sprague-Dawley rats. The conditions noted are these: rat; for AUC(0-inf) / Cmax / bioavailability: Sprague-Dawley, 10 mg/kg; for AUC(0-inf): AUCinf. Here is the method: Two cohorts of Sprague-Dawley rats are used in two independent studies. All animals are fasted overnight before the experiment with free access to water. In study 1, a total of 18 rats are used for a 4 h time course pharmacokinetic (PK) study. […] On the day of the experiment, xamoterol is freshly prepared in saline. […] Four hours post-dose, rats are deeply anesthetized with isoflurane and blood samples are collected by cardiac puncture. In study 2, a total of 18 rats are used for a 20 min post-dose collection study. […] At 20 min post-dose, rats are deeply anesthetized with isoflurane and blood samples are collected by cardiac puncture. Brains are collected after perfusion with phosphate buffered saline. […] LC separation is carried out on a Phenomenex Synergi Polar-RP column (2.5 μm, 2 mm×50 mm) with a flow rate of 0.25 ml/min at room temperature. Mobile phase A consisted of 10 mM ammonium acetate and 0.1% formic acid in LCMS grade water. Mobile phase B consisted of 10 mM ammonium acetate and 0.1% formic acid in LCMS grade acetonitrile: water 90:10% (v/v). […] Five μl of the extracted samples is injected. The mass spectrometer is operated in the positive mode with multiple-reaction monitoring (MRM) with the transition m/z 334.1→210.1 and 334.1→100.2.

Data set [2] relates to heart rate and blood pressure. Description: Cardiovascular studies (heart rate and blood pressure) in anesthetized rats. The conditions noted are these: 3 mg/kg subcutaneous. The class given is in vivo, Sprague-Dawley rats. Here is the method: Adult rats are anesthetizes using isoflurane and are accommodated on a heated platform warmed to 36° C. A jugular catheter (for IV administration of the drug) and an intra-arterial catheter (tail artery, for blood pressure measurements) are implanted under 2.5% isoflurane. To avoid clotting, all animals received a single dose of heparin after intravenous cannulation. Intra-arterial catheter was then connected to a pressure transducer coupled to a computerized data acquisition system (PowerLab) and its application software (LabChart 8)[AD Instruments (Australia)]. Mean blood pressure and the hear rate was analyzed and plotted using prism software.
Briefly, rats are anesthetized with 3-4% isoflurance and 1 cm longitudinal incision is made on the ventral aspect of the tail exposing the tail artery. Polyethylene catheter (PE50) filled with heparinized saline is then inserted into the tail artery and connected to blood pressure transducer system. After assuring absence of any air bubbles, 5-10 min of baseline systolic and diastolic blood pressure along with heart rate are recorded using LabChart Pro (AD Instruments).
FIG. 9 illustrates the effect of exemplary compounds on average heart rate in a rat in comparison with reference compounds isoprenaline and ICI 118,551. FIG. 10 illustrates the effect of exemplary compounds on blood pressure in a rat in comparison with reference compounds isoprenaline and ICI 118,551.

A short description of data set [3]: Microsomal stability assay, mouse. The conditions noted are these: 0.1 uM.
In data set [4] the test system is Abeta-induced LTP impairment in hippocampal slices. Description: Long-term potentiation in hippocampal slices exposed to amyloid beta. To be noted: mouse hippocampal slices, 10 uM. How it is done:
Mice were anesthetized with isoflurane before decapitation. The brain was quickly removed and immersed for 2 min in ice-cold low-calcium modified artificial cerebrospinal fluid (mACSF) composed of (in mM): 119 NaCl, 2.5 KCl, 1 CaCl2, 3 MgSO4, 1 NaH2PO4, 26 NaHCO3 and 10 glucose, osmolarity ˜305 mOsm, continuously bubbled with 95% O2-5% CO2, pH=7.4. The hippocampus was dissected out and cut in ice-cold mACSF with a vibratome (Leica VT1000S; Nussloch, Germany) into […] slices from the middle part of the hippocampus. The slices were allowed to recover in oxygenated mACSF at 33° C. for 10 min, and then at room temperature for an additional 2-3 hr before experimental recordings. Slices were transferred into the recording chamber and superfused with regular ACSF containing (in mM): 119 NaCl, 2.5 KCl, 2.5 CaCl2, 1.3 MgSO4, 1 NaH2PO4, 26 NaHCO3 and 10 glucose, continuously bubbled with 95% O2-5% C02, pH=7.4, osmolarity ˜305 mOsm, at a constant rate of 2.7 mL/min at 32° C. […] The initial slope of field excitatory postsynaptic potentials (fEPSP) was measured at latencies 0.1-0.9 ms. […] After stabilization of responses, input-output dependences were measured using series of stimulation intensities (range 30-150 μA). […] LTP was induced by high-frequency tetanization ([…], 100 Hz for 1 sec), and the responses were recorded for the period of 1.5 h after the tetanus.

The subject of another data set is C57bl/6J mice. Kind of data set: Neurogenesis, doublecortin-immunoreactive neuroblast counts in dentate gyrus. To be noted: 0.3 mg/kg subcutaneous daily from 3.5 to 6.0 months of age.
The test system of the next data set is 5XFAD mice. Kind of data set: Chronic xamoterol in 5XFAD mouse model of Alzheimer's disease, cortex qRT-PCR of inflammation genes. The conditions noted are these: 3 mg/kg/day by mini-osmotic pump, 2.5 months.

5-HT1A, sequence (P08908 whole entry, species assumed): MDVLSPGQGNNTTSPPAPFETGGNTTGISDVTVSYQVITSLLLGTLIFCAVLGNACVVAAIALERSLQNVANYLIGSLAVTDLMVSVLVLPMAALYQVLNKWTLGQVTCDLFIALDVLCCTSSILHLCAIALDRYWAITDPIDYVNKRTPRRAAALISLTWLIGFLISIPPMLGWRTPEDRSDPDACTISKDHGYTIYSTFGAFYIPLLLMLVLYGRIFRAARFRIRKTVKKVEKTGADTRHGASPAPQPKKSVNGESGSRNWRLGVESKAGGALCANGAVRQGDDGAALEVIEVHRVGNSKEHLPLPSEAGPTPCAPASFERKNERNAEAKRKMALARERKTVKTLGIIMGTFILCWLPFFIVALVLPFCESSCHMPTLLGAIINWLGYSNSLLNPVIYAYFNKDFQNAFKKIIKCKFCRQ
5-HT2B, sequence (P41595 whole entry, species assumed): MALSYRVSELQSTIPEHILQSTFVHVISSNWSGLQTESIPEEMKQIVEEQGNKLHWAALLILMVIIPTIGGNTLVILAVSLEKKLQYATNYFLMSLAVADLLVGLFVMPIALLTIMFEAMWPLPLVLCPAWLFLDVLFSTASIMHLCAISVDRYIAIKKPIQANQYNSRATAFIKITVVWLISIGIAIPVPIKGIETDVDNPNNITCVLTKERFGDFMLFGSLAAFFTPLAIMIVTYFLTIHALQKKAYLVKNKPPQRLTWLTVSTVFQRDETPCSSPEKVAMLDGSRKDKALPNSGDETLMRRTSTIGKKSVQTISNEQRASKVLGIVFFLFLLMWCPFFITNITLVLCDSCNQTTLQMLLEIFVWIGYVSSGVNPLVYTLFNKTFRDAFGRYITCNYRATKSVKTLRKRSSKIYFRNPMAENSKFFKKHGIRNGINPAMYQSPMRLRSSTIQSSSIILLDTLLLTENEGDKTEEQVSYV

Consider `COc1ccccc1OCCNC[C@H](O)COc1ccc(O)cc1` [Compound 43], for which, on 5-HT1A, the “affinity for 5-HT1A” value is recorded as “significant affinity”. On 5-HT2B, the “affinity for 5-HT2B” value is on record as “significant affinity”. Also, at α1D adrenergic receptor, the “affinity for α1D adrenergic receptor” value was “significant affinity”. Also, at D3 dopaminergic receptor, the “affinity for D3 dopaminergic receptor” value was “significant affinity”. Moreover, the AUC(0-inf) in data set [1] (in vivo, ip) was 2160 ± 310 ng·h/mL; in data set [1] (in vivo, iv), 1800 ± 256 ng·h/mL. Besides, the Cmax turned out to be 762 ± 67 ng/mL in [1] (in vivo, ip, Cmax); 4000 ± 1110 ng/mL in data set [1] (in vivo, iv, Cmax); 946 ng/mL in data set [1] (in vivo, po, 10 mg/kg PO - Portal vein, read-out: Cmax); 116 ng/mL in data set [1] (in vivo, po, 10 mg/kg PO - Systemic (jugular vein), read-out: Cmax). In addition, the bioavailability in [1] (in vivo, po) stood at 6%. Moreover, the “time of maximum concentration in systemic plasma” value in data set [1] (10 mg/kg IP) came to 90 min. In data set [1] (4 hour time-course PK study), the clearance entry is recorded as “cleared more slowly”. In addition, the “effect on blood pressure” value in data set [2] is given as “significant reduction”. Moreover, the “effect on heart rate” value in data set [2] is “did not produce significant effects”. Also, the “compound remaining after 60 minutes in mouse liver microsomes” value in data set [3] stood at 62.8%.

On to `O=C(NCCNCC(O)COc1ccc(O)cc1)N1CCOCC1` (stereo not drawn) [Xamoterol, reference compound], for which the AUC(0-inf) in [1] (in vivo, ip) amounted to 2830 ± 517 ng·h/mL; in [1] (in vivo, iv), 2450 ± 601 ng·h/mL. For the same compound, the Cmax in [1] (in vivo, ip, Cmax) was 7440 ± 730 ng/mL; in data set [1] (in vivo, iv, Cmax) it was 22200 ± 4030 ng/mL. The bioavailability in data set [1] (in vivo, po) was 1.7%. Besides, the clearance result in [1] (in vivo) is “cleared rapidly”. Besides, in data set [2], the “effect on blood pressure” value is on record as “significant reduction”. The “effect on heart rate” value in data set [2] was “did not produce significant effects”. The “amyloid beta-induced LTP impairment” value in [4] is “blocks the LTP impairment induced by Ab; also recorded: blocks the Ab-induced LTP in impairment”. The “neurogenesis (neuroblast counts in dentate gyrus)” value in the data set with C57bl/6J mice is listed as “increases neurogenesis”. The “expression of inflammation genes in cortex” value in the data set on 5XFAD mice was “attenuated elevated expression of Iba1, CD74, CD14 and TGFb”.
